# Assay results as given in PubChem BioAssay AID686932 (Sanford-Burnham Center for Chemical Genomics, 2013).
# Several values for one entry are separate records, joined by “and”; a condition that tells them apart may be missing. Equal values may be shown once. Activity calls are given as the source filed them.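 Rule for the calls: active = IC50 against MMP-2 at or below 100 µM; inactive = the rest.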
# Target: 72 kDa type IV collagenase (Homo sapiens) (UniProt P08253)
# Experiment: MMP-2 inhibition counter-screen for RPN11 hits, SAR follow-up, counter-screen for RPN11 inhibitor project, biochemical, fluorescence (AID 686932)
# Settings: recombinant MMP-2, FRET peptide cleavage fluorescence
# 72 kDa type IV collagenase (Homo sapiens), sequence (P08253 whole entry, looked up): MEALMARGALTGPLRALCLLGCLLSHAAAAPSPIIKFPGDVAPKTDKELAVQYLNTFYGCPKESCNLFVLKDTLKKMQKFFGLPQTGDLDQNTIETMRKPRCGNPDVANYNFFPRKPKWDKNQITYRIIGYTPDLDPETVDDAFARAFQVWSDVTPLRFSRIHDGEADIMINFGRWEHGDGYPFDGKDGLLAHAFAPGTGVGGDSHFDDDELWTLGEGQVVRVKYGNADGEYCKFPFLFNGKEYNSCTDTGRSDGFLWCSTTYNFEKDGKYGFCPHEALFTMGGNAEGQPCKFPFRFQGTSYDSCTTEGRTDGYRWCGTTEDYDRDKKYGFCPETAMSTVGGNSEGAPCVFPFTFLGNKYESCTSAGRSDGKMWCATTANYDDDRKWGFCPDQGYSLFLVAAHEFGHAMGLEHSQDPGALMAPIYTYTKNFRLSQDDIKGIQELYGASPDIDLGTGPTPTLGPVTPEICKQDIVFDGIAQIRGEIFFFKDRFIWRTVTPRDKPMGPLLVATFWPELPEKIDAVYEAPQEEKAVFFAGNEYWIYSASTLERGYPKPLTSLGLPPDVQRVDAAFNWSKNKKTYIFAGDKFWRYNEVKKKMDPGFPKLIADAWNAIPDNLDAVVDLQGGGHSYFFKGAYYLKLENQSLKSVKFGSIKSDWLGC
row,IC50,SMILES
1,> 99 µM (inactive),C[C@@H](C(=O)O)N(C)C(=O)c1cnc2c(SSc3cccc4cc(C(=O)N(C)[C@@H](C)C(=O)O)cnc34)cccc2c1
2,> 99 µM (inactive),COC(=O)[C@@H]1CCCN1C(=O)c1cnc2c(SSc3cccc4cc(C(=O)N5CCC[C@H]5C(=O)OC)cnc34)cccc2c1
3,> 99 µM (inactive),COC(=O)[C@H](C)N(C)C(=O)c1cnc2c(SSc3cccc4cc(C(=O)N(C)[C@@H](C)C(=O)OC)cnc34)cccc2c1
4,8.92 µM,O=C(Sc1cccc2cccnc12)c1c(Cl)cccc1Cl
5,38.5 µM,Cc1cccc(C(=O)Sc2cccc3cccnc23)c1
6,> 99 µM (inactive),O=C(Sc1cccc2cccnc12)c1ccc2c(c1)OCO2
7,> 99 µM (inactive),O=C(Sc1cccc2cccnc12)c1cccc(Cl)c1
8,> 99 µM (inactive),CC(C)Cc1ccc(C(=O)Sc2cccc3cccnc23)cc1
9,> 99 µM (inactive),COc1ccc(C(=O)Sc2cccc3cccnc23)cc1F
10,> 99 µM (inactive),O=C(Sc1cccc2cccnc12)c1ccccc1OC(F)(F)F
11,> 99 µM (inactive),CC(C)[C@H](NC(=O)c1cnc2c(SSc3cccc4cc(C(=O)N[C@H](C(=O)O)C(C)C)cnc34)cccc2c1)C(=O)O
12,inactive,O=C(Sc1cccc2cccnc12)c1ccccc1[N+](=O)[O-]
13,20.2 µM,CC[C@@H](C)[C@H](NC(=O)c1cnc2c(SSc3cccc4cc(C(=O)N[C@H](C(=O)O)[C@H](C)CC)cnc34)cccc2c1)C(=O)O
14,> 99 µM (inactive),COC(=O)[C@H](CO)NC(=O)c1cnc2c(SSc3cccc4cc(C(=O)N[C@@H](CO)C(=O)OC)cnc34)cccc2c1
15,> 99 µM (inactive),COC(=O)[C@@H](NC(=O)c1cnc2c(SSc3cccc4cc(C(=O)N[C@H](C(=O)OC)C(C)C)cnc34)cccc2c1)C(C)C
16,> 99 µM (inactive),O=C(Sc1cccc2cccnc12)c1ccc([N+](=O)[O-])cc1
17,3.38 µM,N#Cc1ccc(C(=O)Sc2cccc3cccnc23)cc1
18,16.2 µM,COc1ccc(C(=O)Sc2cccc3cccnc23)cc1
19,17 µM and > 99 µM (inactive),CCOc1ccccc1C(=O)Sc1cccc2cccnc12
20,> 99 µM (inactive),O=C(Sc1cccc2cccnc12)c1ccc(F)c(F)c1
21,> 99 µM (inactive),O=C(Sc1cccc2cccnc12)c1cccc(C(F)(F)F)c1
22,> 99 µM (inactive),CC(C)(C)OC(=O)CCNC(=O)c1cnc2c(SSc3cccc4cc(C(=O)NCCC(=O)OC(C)(C)C)cnc34)cccc2c1
23,> 99 µM (inactive),COC(=O)[C@H](C)NC(=O)c1cnc2c(SSc3cccc4cc(C(=O)N[C@@H](C)C(=O)OC)cnc34)cccc2c1
24,> 99 µM (inactive),O=C(Sc1cccc2cccnc12)c1ccccc1F
25,> 99 µM (inactive),O=C(Sc1cccc2cccnc12)c1ccc(C(F)(F)F)cc1
26,> 99 µM (inactive),COC(=O)C[C@H](NC(=O)c1cnc2c(SSc3cccc4cc(C(=O)N[C@@H](CC(=O)OC)C(=O)OC)cnc34)cccc2c1)C(=O)OC
27,16.3 µM,O=C(O)[C@@H]1CCCN1C(=O)c1cnc2c(SSc3cccc4cc(C(=O)N5CCC[C@H]5C(=O)O)cnc34)cccc2c1
28,> 99 µM (inactive),O=C(O)c1cnc2c(SSc3cccc4cc(C(=O)O)cnc34)cccc2c1

# Second part, the compound before the results:
row,SMILES,IC50
1,O=C(Sc1cccc2cccnc12)c1ccccc1Cl,> 99 µM (inactive)
2,O=C(Sc1cccc2cccnc12)c1ccccc1,21.8 µM
3,COc1cccc(C(=O)Sc2cccc3cccnc23)c1,> 99 µM (inactive)
4,Cc1ccc(C(=O)Sc2cccc3cccnc23)cc1,> 99 µM (inactive)
5,COc1ccccc1C(=O)Sc1cccc2cccnc12,> 99 µM (inactive)
6,COC(=O)[C@H](C)NC(=O)c1ccnc2c(SSc3cccc4c(C(=O)N[C@@H](C)C(=O)OC)ccnc34)cccc12,> 99 µM (inactive)
7,CC(C)C[C@H](NC(=O)c1cnc2c(SSc3cccc4cc(C(=O)N[C@@H](CC(C)C)C(=O)O)cnc34)cccc2c1)C(=O)O,9.21 µM
8,O=C(Sc1cccc2cccnc12)c1ccccc1I,7.06 µM
9,O=C(Sc1cccc2cccnc12)C1CCCCC1,20.5 µM
10,COC(=O)[C@H](CC(C)C)NC(=O)c1cnc2c(SSc3cccc4cc(C(=O)N[C@@H](CC(C)C)C(=O)OC)cnc34)cccc2c1,> 99 µM (inactive)
11,CC[C@@H](C)[C@H](NC(=O)c1cnc2c(SSc3cccc4cc(C(=O)N[C@H](C(=O)OC)[C@@H](C)CC)cnc34)cccc2c1)C(=O)OC,> 99 µM (inactive)
12,COc1ccc(C(=O)Sc2cccc3cccnc23)cc1OC,> 99 µM (inactive)
13,COC(=O)c1cnc2c(SSc3cccc4cc(C(=O)OC)cnc34)cccc2c1,24 µM
14,O=C(Sc1cccc2cccnc12)c1ccccc1Br,> 99 µM (inactive)
15,O=C(Sc1cccc2cccnc12)c1cccc2ccccc12,29.3 µM
16,N#Cc1cccc(C(=O)Sc2cccc3cccnc23)c1,> 99 µM (inactive)
17,O=C(Sc1cccc2cccnc12)c1ccc(F)cc1,> 99 µM (inactive)
18,O=C(Sc1cccc2cccnc12)c1ccc(F)cc1F,9.07 µM
19,CCCc1ccc(C(=O)Sc2cccc3cccnc23)cc1,7.85 µM
20,Cc1ccccc1C(=O)Sc1cccc2cccnc12,> 99 µM (inactive)
